Laboratory results reported in paper PMC4257840 (Journal of Medicinal Chemistry, 2014).
Like-named read-outs stand apart in the source and are kept apart here.

Assays:
[1] = target: human liver Cat B (Homo sapiens, UniProt P07858); assay: Cathepsin B inhibition assay
Procedure: Inhibition of Cat B was measured as described with modifications.[25] […] Progress curves were followed at 30 °C by detection of fluorescence at 320/420 nm (excitation/emission).
(§10) In all cases, for reactions involving inhibitors, the amount of reaction buffer was adjusted to 60 μL, the inhibitor added as a 10 μL aliquot, and incubated for 20 min with the enzyme prior to reaction start.

[2] = target: T1, Human recombinant ADAM-17 (Homo sapiens, UniProt P78536); assay: Protease counter-screening: ADAM-17/TACE; format: biochemical
T1 construct: host or cells: Sf21 insect cells
Procedure: (§1) Appendix 7. Protease Counter -Screening
(§2) Protease counter-screeni ng was performed using the methods described below. Initial screening was conducted in duplicate using a single test substance concentration of 10 µ M .
(§3) Additional assays were conducted in replicate for selected pairin gs of test s ubstance and enz yme in order to enable the determination of IC50 values using conventional procedures.
(§4) Determination of K i was made using the Batch K i program (Biokin Ltd, Pullman, WA) to derive values from the Morrison equation: […]
MMP-9: Human recombinant MMP-9 proenz yme ex pressed in mammalian cells was activated with APMA for 60 min at 37 °C. […] The amount of MCA-P LG formed was read spectrofluorimetricall y at 340 nm/400 nm.
ADAM-17/TACE: Human recombinant ADAM-17 expressed in Sf21 insect cells was used as enz yme sour ce. […] T he amount of MCA-P LAQA formed w as read spectro fluorimetricall y at 340 nm/400 nm.
Angiotensin converting enzyme: Test compound or vehicle was pre- incubated in modified HEPES buffer pH 7.5 for 15 min at 25 °C with 31 mU/mL angiotensin converting enz yme from rabbit lung. […] The amount of substrate remaining was read spectrophotometricall y at 340 nm and used to deri ve the extent of reaction and its inhibition. […]

[3] = target: T2, Human recombinant MMP-3 (Homo sapiens, UniProt P08254); assay: Protease counter-screening: MMP-3; format: biochemical
T2 construct: host or cells: E. coli
T2 sequence (P08254 100-477): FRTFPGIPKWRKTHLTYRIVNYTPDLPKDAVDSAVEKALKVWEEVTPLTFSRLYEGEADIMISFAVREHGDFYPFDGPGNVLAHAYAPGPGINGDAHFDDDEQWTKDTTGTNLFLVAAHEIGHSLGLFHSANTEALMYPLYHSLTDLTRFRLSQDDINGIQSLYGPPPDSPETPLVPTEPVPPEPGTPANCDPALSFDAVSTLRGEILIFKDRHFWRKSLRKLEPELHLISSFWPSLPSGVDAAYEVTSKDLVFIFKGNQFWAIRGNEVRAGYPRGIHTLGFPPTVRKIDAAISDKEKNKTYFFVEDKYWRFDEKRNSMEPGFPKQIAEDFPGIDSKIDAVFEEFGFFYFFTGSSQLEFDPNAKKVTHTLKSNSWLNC
Procedure: as §1, §2, §3, §4
(§5) Where [E ] is the active enz yme concentration, Kiapp is the apparent inhibition const ant, v 0 is the control velocit y in the absence of inhibitors, vb is the background velocity, v is the initial reaction velocit y in the presence of inhibitor, and I is the inhibitor concentration.Thence:
(§6) Where [S ] is the substrate concentration and KM is the Michealis constant. […]
(§7) Test compound or vehicle was pre- incubated with 600 […]
(§8) The reaction was […]
(§9) initiated by addition of 1 µM N-CH3-SO2-D-FGR-pNA for another 120 min incubation period. […]
Matrix metalloprotease-3 (MMP-3 ): Human recombinant MMP-3 proenz yme expressed in E. coli was activated with 4-aminophen yl mercuric acetate (APMA) for 60 min at 37 °C. […] The amount of MCA-PLG formed was read spectrofluorimetricall y at 340 nm/400 nm.

[4] = target: recombinant human Cat S (Homo sapiens, UniProt P25774); assay: Cathepsin S inhibition assay; format: biochemical; conditions: Table S1 counter-screening; read-out: Cathepsin S IC50
recombinant human Cat S, sequence (P25774 115-331): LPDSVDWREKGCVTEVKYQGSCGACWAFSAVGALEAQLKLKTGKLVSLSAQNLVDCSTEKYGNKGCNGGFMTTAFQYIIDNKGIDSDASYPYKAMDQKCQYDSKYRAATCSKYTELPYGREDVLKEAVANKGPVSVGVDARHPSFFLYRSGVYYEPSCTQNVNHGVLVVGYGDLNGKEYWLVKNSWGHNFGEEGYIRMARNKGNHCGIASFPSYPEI
Procedure: as §10

[5] = target: T3, Factor VIIa from human plasma (Homo sapiens, UniProt P08709); assay: Protease counter-screening: Factor VIIa; format: biochemical
T3 construct: incubated with 25 nM Factor VIIa from; from tissue; host or cells: human plasma
T3 sequence (P08709 213-466 limits assumed): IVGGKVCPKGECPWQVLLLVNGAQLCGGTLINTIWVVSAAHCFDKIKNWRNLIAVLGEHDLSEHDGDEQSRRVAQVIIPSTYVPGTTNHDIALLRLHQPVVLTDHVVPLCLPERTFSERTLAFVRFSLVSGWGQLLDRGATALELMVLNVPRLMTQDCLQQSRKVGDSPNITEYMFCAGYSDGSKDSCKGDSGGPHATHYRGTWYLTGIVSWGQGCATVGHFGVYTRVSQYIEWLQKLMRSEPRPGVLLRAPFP
T3 sequence (P08709 61-212 limits assumed): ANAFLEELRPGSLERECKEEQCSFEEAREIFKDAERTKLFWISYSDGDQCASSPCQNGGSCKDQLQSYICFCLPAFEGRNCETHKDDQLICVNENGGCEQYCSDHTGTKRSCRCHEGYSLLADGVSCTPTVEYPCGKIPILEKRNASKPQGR
Procedure: as §1, §2, §3, §4, §5, §6
Test compound or vehicle was pre- incubated with 600
Factor VIIa: Test compound or vehicle was pre- incubated with 25 nM Factor VIIa from human plasma in modified 50 mM Tris-HCl buffer pH 7.6 for 15 min at 25 °C. The reaction was initiated by addition of 1 µM N-CH3-SO2-D-FGR-pNA for another 120 min incubation period.
The amount of pNA formed was read spectrophotometricall y at 405 nm. […]

[6] = target: T4, Human recombinant dipeptidyl peptidase IV (Homo sapiens, UniProt P27487); assay: Protease counter-screening: Dipeptidyl Dipeptidase IV; format: biochemical
T4 construct: host or cells: insect Sf9 cells
T4 sequence (P27487 whole entry): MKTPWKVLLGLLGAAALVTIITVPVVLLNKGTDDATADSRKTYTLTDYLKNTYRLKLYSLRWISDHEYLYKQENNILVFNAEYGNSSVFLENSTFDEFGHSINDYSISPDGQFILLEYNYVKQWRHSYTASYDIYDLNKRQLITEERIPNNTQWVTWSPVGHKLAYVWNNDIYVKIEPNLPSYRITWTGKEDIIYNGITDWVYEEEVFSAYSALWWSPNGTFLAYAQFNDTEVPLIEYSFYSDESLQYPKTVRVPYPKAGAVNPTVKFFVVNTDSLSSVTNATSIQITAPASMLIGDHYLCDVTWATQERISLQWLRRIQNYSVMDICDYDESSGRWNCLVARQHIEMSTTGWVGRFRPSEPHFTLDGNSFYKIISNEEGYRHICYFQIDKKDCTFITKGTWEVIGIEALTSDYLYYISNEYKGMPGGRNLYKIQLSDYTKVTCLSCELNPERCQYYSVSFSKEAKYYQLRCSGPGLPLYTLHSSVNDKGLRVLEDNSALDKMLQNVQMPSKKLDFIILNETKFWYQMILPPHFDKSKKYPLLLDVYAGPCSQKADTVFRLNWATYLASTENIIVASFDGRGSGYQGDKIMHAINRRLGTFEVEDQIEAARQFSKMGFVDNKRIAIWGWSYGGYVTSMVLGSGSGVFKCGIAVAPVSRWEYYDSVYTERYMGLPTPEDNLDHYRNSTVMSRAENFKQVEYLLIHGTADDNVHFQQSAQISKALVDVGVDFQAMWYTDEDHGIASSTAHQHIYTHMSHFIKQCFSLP
Procedure: as §1, §2, §3, §4, §5, §6, §7, §8, §9
Factor Xa: Test compound or vehicle was pre -incubated for 15 min at 25 °C in modified 50 mM Tris-HCl buffer pH 7.6 containing 0.4 nM Factor Xa from human plasma. The reaction was initiated by addition of 0.3 mM N-a-Z-D-RGR-pNA for another 60 min incubation period. The amount of pNA form ed was measur ed at 405 nm. […]

T1 sequence (P78536 215-824): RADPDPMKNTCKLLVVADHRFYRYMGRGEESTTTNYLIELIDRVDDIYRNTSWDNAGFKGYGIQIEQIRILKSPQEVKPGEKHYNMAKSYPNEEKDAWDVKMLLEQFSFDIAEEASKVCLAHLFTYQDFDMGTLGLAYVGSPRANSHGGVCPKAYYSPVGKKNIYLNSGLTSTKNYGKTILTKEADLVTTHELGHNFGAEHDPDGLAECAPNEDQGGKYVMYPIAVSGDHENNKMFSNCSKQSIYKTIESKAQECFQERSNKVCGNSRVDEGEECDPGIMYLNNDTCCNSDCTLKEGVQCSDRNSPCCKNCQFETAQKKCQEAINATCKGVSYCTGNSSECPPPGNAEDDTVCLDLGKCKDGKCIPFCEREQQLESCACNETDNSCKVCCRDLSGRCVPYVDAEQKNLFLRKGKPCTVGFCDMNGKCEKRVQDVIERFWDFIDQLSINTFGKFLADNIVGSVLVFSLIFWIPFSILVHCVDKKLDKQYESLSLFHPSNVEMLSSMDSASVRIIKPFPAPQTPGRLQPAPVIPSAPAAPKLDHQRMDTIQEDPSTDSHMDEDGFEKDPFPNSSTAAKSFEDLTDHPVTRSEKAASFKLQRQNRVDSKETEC

## CC(C)[C@H](NC(=O)[C@H](C)NC(=O)[C@@H](NC(=O)c1ccccc1)C(C)(C)C)C(=O)C(=O)NCc1ccccc1 [Compound 38, N-{(S)-1-[(S)-1-((S)-1-Benzylaminooxalyl-2-methyl-propylcarbamoyl)-ethylcarbamoyl]-2,2-dimethyl-propyl}-benzamide]
[1]; read-out: Cat B IC50, mean ± SE
  IC50: 512 ± 59 nM
[1]; read-out: Cathepsin B IC50, Table S1 counter-screening
  IC50: 510 nM
[2]
  inhibition at 10 µM: 0%
[3]
  inhibition at 10 µM: 0%
[4]
  IC50: 170 nM
[5]
  inhibition at 10 µM: 1%
[6]
  inhibition at 10 µM: 0%
